The subject of one data set is SARS-CoV-2. Kind of data set: Antiviral activity assay (SARS-CoV-2 nucleoprotein ELISA, CPE observation) in Vero E6 cells. Type of data set: cell-based. Conditions: Severe acute respiratory syndrome coronavirus 2, Vero C1008. (In general: ELISA stands for enzyme-linked immunosorbent assay.)
Another data set can be described thus: MTS cytotoxicity assay. Conditions: African green monkey (Cercopithecus aethiops), Vero E6 cells.

Molecules are shown by their SMILES. In brackets after ≈: the same amount, converted by molar mass.

In the case of `CCC(CC)COC(=O)[C@H](C)N[P@](=O)(OC[C@H]1O[C@@](C#N)(c2ccc3c(N)ncnn23)[C@H](O)[C@@H]1O)Oc1ccccc1` [Remdesivir], the activity at 0.05 µg/mL in the data set on SARS-CoV-2 (0.05 μg mL^−1, m.o.i. 0.01, 72 hours, ELISA, untreated infected control =100%, read-out: Antiviral activity (% viral NC protein, compared to untreated control)) was 107 ± 23%. Further, in the data set on SARS-CoV-2 (0.24 μg mL^−1, m.o.i. 0.01, 72 hours, ELISA, untreated infected control =100%, read-out: Antiviral activity (% viral NC protein, compared to untreated control)), the activity at 0.24 µg/mL is 96 ± 10%. Besides, the activity at 1.2 µg/mL with SARS-CoV-2 (1.2 μg mL^−1, m.o.i. 0.01, 72 hours, ELISA, untreated infected control =100%, read-out: Antiviral activity (% viral NC protein, compared to untreated control)) is 73 ± 9%. The activity at 6 µg/mL in the data set with SARS-CoV-2 (6 μg mL^−1, m.o.i. 0.01, 72 hours, ELISA, untreated infected control =100%, read-out: Antiviral activity (% viral NC protein, compared to untreated control)) is 14 ± 7%. In addition, the IC50 in the data set with SARS-CoV-2 (Vero E6, m.o.i. 0.01, 72 hours, nucleoprotein ELISA, read-out: 50% inhibitory concentration (IC50), SARS-CoV-2 viral replication) worked out at 1.9 µg/mL (≈ 3.15 µM). In the data set “MTS cytotoxicity assay”, this compound returned a CC50 at 72 h of over 120 µg/mL; a viability at 72 h, 2.4 μg mL^−1 of 94.1 ± 1%; a viability at 72 h, 12 μg mL^−1 of 98.9 ± 6.7%; a viability at 72 h, 60 μg mL^−1 of 82.1 ± 2.2%.

In general, CC50 refers to the concentration at which the toxic effect on the cells reaches its halfway point. By viability is commonly meant a per cent measure of how many cells are alive, often set against a control.

These data come from patent US20250332116A1, “CARBON-BASED ANTI VIRAL NANOPARTICLES” (PORTO CONTE RICERCHE SOCIETA A RESP[…], priority 2021, published 2025).
